System: mRNA expression in peripheral blood of individuals with DMD
Assay: Whole-blood gene expression microarray: DMD administered deflazacort vs DMD administered prednisone
Format: in vivo, human
Conditions: for p-value / p-value (t-test, deflazacort vs. prednisone) / p-value (t-test, deflazacort vs prednisone): deflazacort vs. prednisone
Protocol: Fifteen ml of blood was collected from each individual into 6 PAXgene® Vacutainer® tubes (PreAnalytiX, Germany) by antecubital fossa venipuncture. PAXgene® tubes contain a proprietary reagent that immediately stabilizes RNA, thus reducing RNA degradation and minimizing gene expression changes following phlebotomy. The tubes were then inverted 20 times, then remained undisturbed for 2 h at room temperature (about 19° C. to about 22° C.), and then stored at -70° C. until processed. Total RNA was isolated using the Paxgene® blood RNA kit (PreAnalytiX, Germany) according to the manufacturers instructions. The RNA isolated is from all cells in whole blood. Typical yields of total RNA isolated from about 7.5 ml of human whole blood were between 10 μg RNA and 40 μg RNA. RNA quality and purity was analyzed by spectrophotometry using the Nanodrop ND-1000, and RNA integrity was analyzed using the Agilent 2100 Bioanalyzer. […] Sample labeling, hybridization to chips, and image scanning were performed using standard Affymetrix protocols. For each whole blood sample from control individuals and individuals with DMD, total RNA was labeled using the One-Cycle Target Labeling protocol and hybridized to the arrays. […] Double-stranded cDNA synthesis, biotin-labeled cRNA synthesis, and cRNA fragmentation were performed according to the Affymetrix GeneChip Eukaryotic Expression Analysis protocol. The labeled, fragmented cRNA (15 μg) was hybridized at 45° C. overnight. After hybridization, the array was washed and stained. The arrays were scanned with an argon-ion laser at λ=570 nm, with a resolution of 3 μm/pixel (Affymetrix, Inc.). After scanning the array, the raw probe level values for each probe were saved in Affymetrix.cel files. […] Statistical analyses, including t-test analyses, unsupervised hierarchical clustering, and principal component analyses were conducted using Genespring 7.2 software ([…]® 7, Silicon Genetics, Redwood City Calif.). […] Corrections for multiple comparisons used a Benjamini-Hochberg False Discovery Rate (FDR) of 0.05, disclosed in Tang et al., J Cereb Blood Flow Metab 26 (2006) 1089, which is expressly incorporated by reference herein in its entirety. […] Sample processing and array hybridization, probe-level data analysis, and statistical analysis were identical to Example 1.

## CC(=O)OCC(=O)[C@@]12N=C(C)O[C@@H]1C[C@H]1[C@@H]3CCC4=CC(=O)C=C[C@]4(C)[C@H]3[C@@H](O)C[C@@]12C [deflazacort]
Deflazacort compared to prednisone, blood
  expression of retinoic acid receptor α (RARa): significantly up-regulated
AA100891, Nucleic Acid No. 2100
  p-value: 0.0498
AA534416, Nucleic Acid No. 2105
  p-value: 0.0123
AA679303, Nucleic Acid No. 2067
  p-value (t-test, deflazacort vs. prednisone): 0.0185
AA702409, Nucleic Acid No. 2116
  p-value: 0.0453
AA789296, Nucleic Acid No. 2010
  p-value (t-test, deflazacort vs. prednisone): 0.0291
AA830854, Nucleic Acid No. 1325
  p-value (t-test, deflazacort vs. prednisone): 0.0452
AB023216, Nucleic Acid No. 2081
  p-value (t-test, deflazacort vs prednisone): 0.00521
AB033106, Nucleic Acid No. 2083
  p-value (t-test, deflazacort vs prednisone): 0.0446
AF005774, Nucleic Acid No. 1945
  p-value: 0.0104
AF009616, Nucleic Acid No. 1950
  p-value: 0.0293
AF009619, Nucleic Acid No. 1943
  p-value: 0.0064
AF015451, Nucleic Acid No. 1946
  p-value: 0.0107
AF041459, Nucleic Acid No. 1944
  p-value: 0.00822
AF041461, Nucleic Acid No. 1947
  p-value: 0.013
AF075067, Nucleic Acid No. 2112
  p-value: 0.0376
AF083208, Nucleic Acid No. 1892
  p-value: 0.00348
AF098114, Nucleic Acid No. 2069
  p-value (t-test, deflazacort vs prednisone): 0.0202
AF147300, Nucleic Acid No. 1995
  p-value: 0.0271
AF207547, Nucleic Acid No. 2088
  p-value (t-test, deflazacort vs prednisone): 0.00744
AF285167, Nucleic Acid No. 1894
  p-value: 0.0117
AF313468, Nucleic Acid No. 1956
  p-value: 0.0435
AF400600, Nucleic Acid No. 1955
  p-value: 0.0263
AF400602, Nucleic Acid No. 1954
  p-value: 0.0148
AF499918, Nucleic Acid No. 2091
  p-value (t-test, deflazacort vs prednisone): 0.0369
AI017983, Nucleic Acid No. 1338
  p-value (t-test, deflazacort vs. prednisone): 0.0323
AI056689, Nucleic Acid No. 2031
  p-value (t-test, deflazacort vs. prednisone): 0.043
AI080505, Nucleic Acid No. 2099
  p-value (t-test, deflazacort vs prednisone): 0.0412
AI091372, Nucleic Acid No. 1918
  p-value: 0.00592
AI093231, Nucleic Acid No. 1906
  p-value: 0.0085
AI250910, Nucleic Acid No. 2014
  p-value (t-test, deflazacort vs. prednisone): 0.0029
AI342146, Nucleic Acid No. 1905
  p-value: 0.048
AI393727, Nucleic Acid No. 2034
  p-value (t-test, deflazacort vs. prednisone): 0.0345
AI436803, Nucleic Acid No. 1916
  p-value: 0.00828
AI535735, Nucleic Acid No. 2089
  p-value (t-test, deflazacort vs prednisone): 0.0426
AI608725, Nucleic Acid No. 2053
  p-value (t-test, deflazacort vs. prednisone): 6.16E−05
AI651726, Nucleic Acid No. 2119
  p-value: 0.0107
AI670862, Nucleic Acid No. 2017
  p-value: 0.0109
AI719730, Nucleic Acid No. 2039
  p-value (t-test, deflazacort vs. prednisone): 0.00281
AI762695, Nucleic Acid No. 1996
  p-value: 0.032
AI768497, Nucleic Acid No. 1910
  p-value: 0.0137
AI814925, Nucleic Acid No. 2072
  p-value (t-test, deflazacort vs prednisone): 0.0422
AI830331, Nucleic Acid No. 2075
  p-value (t-test, deflazacort vs prednisone): 0.0149
AI830490, Nucleic Acid No. 2028
  p-value (t-test, deflazacort vs. prednisone): 0.0146
AI860150, Nucleic Acid No. 2018
  p-value: 0.026
AI862537, Nucleic Acid No. 2118
  p-value: 0.0333
AI868267, Nucleic Acid No. 1444
  p-value (t-test, deflazacort vs. prednisone): 0.0285
AI906424, Nucleic Acid No. 2044
  p-value (t-test, deflazacort vs. prednisone): 0.0287
AI926544, Nucleic Acid No. 2054
  p-value (t-test, deflazacort vs. prednisone): 0.0136
AI985590, Nucleic Acid No. 1901
  p-value: 0.0389
AJ422148, Nucleic Acid No. 2104
  p-value: 0.026
AK000119, Nucleic Acid No. 2121
  p-value: 0.0375
AK023348, Nucleic Acid No. 2037
  p-value (t-test, deflazacort vs. prednisone): 0.0274
AK024677, Nucleic Acid No. 1915
  p-value: 0.00386
AK024911, Nucleic Acid No. 2045
  p-value (t-test, deflazacort vs. prednisone): 0.0429
AK025217, Nucleic Acid No. 1997
  p-value: 0.0404
AK074686, Nucleic Acid No. 2042
  p-value (t-test, deflazacort vs. prednisone): 0.0406
AK090660, Nucleic Acid No. 2080
  p-value: 0.0288
AK092709, Nucleic Acid No. 2013
  p-value (t-test, deflazacort vs. prednisone): 0.0392
AL021977, Nucleic Acid No. 2110
  p-value: 0.0121
AL049250, Nucleic Acid No. 2101
  p-value: 0.0486
AL049273, Nucleic Acid No. 1402
  p-value (t-test, deflazacort vs. prednisone): 0.0448
AL137645, Nucleic Acid No. 906
  p-value (t-test, deflazacort vs prednisone): 0.0416
AL832727, Nucleic Acid No. 2022
  p-value (t-test, deflazacort vs. prednisone): 0.0334
AL833448, Nucleic Acid No. 2084
  p-value: 0.0326
AU145206, Nucleic Acid No. 1909
  p-value: 0.046
AU158358, Nucleic Acid No. 1897
  p-value: 0.0325
AV700030, Nucleic Acid No. 2063
  p-value: 0.0254
AV722693, Nucleic Acid No. 1994
  p-value: 0.000689
AW070431, Nucleic Acid No. 2113
  p-value: 0.0198
AW081561, Nucleic Acid No. 2012
  p-value (t-test, deflazacort vs. prednisone): 0.0484
AW135013, Nucleic Acid No. 2109
  p-value: 0.0166
AW504458, Nucleic Acid No. 2032
  p-value (t-test, deflazacort vs. prednisone): 0.0109
AW590838, Nucleic Acid No. 2082
  p-value (t-test, deflazacort vs prednisone): 0.0481
AW978350, Nucleic Acid No. 2027
  p-value (t-test, deflazacort vs. prednisone): 0.0388
BC001152, Nucleic Acid No. 2025
  p-value: 0.0219
BC003542, Nucleic Acid No. 2048
  p-value (t-test, deflazacort vs. prednisone): 0.00709
BC006230, Nucleic Acid No. 2123
  p-value: 0.0131
BC006454, Nucleic Acid No. 1650
  p-value: 0.0101
BC012090, Nucleic Acid No. 2043
  p-value (t-test, deflazacort vs. prednisone): 0.0289
BC017896, Nucleic Acid No. 487
  p-value: 0.0133
BC025237, Nucleic Acid No. 2047
  p-value (t-test, deflazacort vs. prednisone): 0.0274
BC039454, Nucleic Acid No. 2011
  p-value (t-test, deflazacort vs. prednisone): 0.0311
BC042832, Nucleic Acid No. 2103
  p-value: 0.0214
BC043187, Nucleic Acid No. 2073
  p-value (t-test, deflazacort vs prednisone): 0.0446
BE207758, Nucleic Acid No. 1913
  p-value: 0.00136
BE348688, Nucleic Acid No. 1904
  p-value: 0.0249
BE439987, Nucleic Acid No. 1711
  p-value: 0.0106
BE465380, Nucleic Acid No. 1911
  p-value: 0.0346
BE550881, Nucleic Acid No. 2102
  p-value: 0.0423
BE563442, Nucleic Acid No. 2062
  p-value (t-test, deflazacort vs. prednisone): 0.00559
BE727883, Nucleic Acid No. 2120
  p-value: 0.0383
BE880245, Nucleic Acid No. 2033
  p-value (t-test, deflazacort vs. prednisone): 0.00733
BE964989, Nucleic Acid No. 2085
  p-value (t-test, deflazacort vs prednisone): 0.0484
BF338947, Nucleic Acid No. 2056
  p-value (t-test, deflazacort vs. prednisone): 0.0148
BF477544, Nucleic Acid No. 1895
  p-value: 0.0499
BF514079, Nucleic Acid No. 1363
  p-value (t-test, deflazacort vs prednisone): 0.0432
BF575213, Nucleic Acid No. 2122
  p-value: 0.00608
BF694956, Nucleic Acid No. 2041
  p-value (t-test, deflazacort vs. prednisone): 0.0262
BG029530, Nucleic Acid No. 2074
  p-value (t-test, deflazacort vs prednisone): 0.000753
BG249565, Nucleic Acid No. 2087
  p-value (t-test, deflazacort vs prednisone): 0.00518
D87291, Nucleic Acid No. 2077
  p-value: 0.0322
H12280, Nucleic Acid No. 2098
  p-value: 0.038
L18865, Nucleic Acid No. 2114
  p-value: 0.034
M15330, Nucleic Acid No. 2060
  p-value (t-test, deflazacort vs. prednisone): 0.0137
M35999, Nucleic Acid No. 2071
  p-value (t-test, deflazacort vs prednisone): 0.014
M60626, Nucleic Acid No. 2020
  p-value (t-test, deflazacort vs. prednisone): 0.0333
N36408, Nucleic Acid No. 2019
  p-value: 0.0384
N59653, Nucleic Acid No. 1900
  p-value: 0.044
N66633, Nucleic Acid No. 2090
  p-value (t-test, deflazacort vs prednisone): 0.0434
NM_000404, Nucleic Acid No. 2029
  p-value (t-test, deflazacort vs. prednisone): 0.000522
NM_000419, Nucleic Acid No. 2070
  p-value (t-test, deflazacort vs prednisone): 0.0421
NM_000484, Nucleic Acid No. 1261
  p-value: 0.00856
NM_000565, Nucleic Acid No. 2064
  p-value: 0.0489
NM_000576, Nucleic Acid No. 2059
  p-value (t-test, deflazacort vs. prednisone): 0.00127
NM_001109, Nucleic Acid No. 1899
  p-value: 0.0468
NM_001154, Nucleic Acid No. 1902
  p-value: 0.0116
NM_001456, Nucleic Acid No. 2015
  p-value (t-test, deflazacort vs. prednisone): 0.0172
NM_001553, Nucleic Acid No. 2057
  p-value (t-test, deflazacort vs. prednisone): 0.0297
NM_001557, Nucleic Acid No. 2065
  p-value (t-test, deflazacort vs. prednisone): 0.0421
NM_001637, Nucleic Acid No. 1903
  p-value: 0.0269
NM_001659, Nucleic Acid No. 1908
  p-value: 0.00749
NM_001690, Nucleic Acid No. 1917
  p-value: 0.021
NM_002068, Nucleic Acid No. 2030
  p-value (t-test, deflazacort vs. prednisone): 0.00544
NM_002087, Nucleic Acid No. 2038
  p-value (t-test, deflazacort vs. prednisone): 0.0294
NM_002110, Nucleic Acid No. 2040
  p-value (t-test, deflazacort vs. prednisone): 0.0352
NM_002155, Nucleic Acid No. 2049
  p-value (t-test, deflazacort vs. prednisone): 0.0206
NM_002199, Nucleic Acid No. 2068
  p-value (t-test, deflazacort vs prednisone): 0.0118
NM_002229, Nucleic Acid No. 2076
  p-value (t-test, deflazacort vs prednisone): 0.0299
NM_003644, Nucleic Acid No. 2023
  p-value: 0.00498
NM_003879, Nucleic Acid No. 1948
  p-value: 0.0159
NM_004041, Nucleic Acid No. 1914
  p-value: 0.0324
NM_004517, Nucleic Acid No. 2066
  p-value (t-test, deflazacort vs. prednisone): 0.0161
NM_004735, Nucleic Acid No. 2106
  p-value: 0.0293
